Assay results reported in patent US20020004611A1 (Cargill, Incorporated, priority 1997, published 2002).

Legend:
Format in all cases: physicochemical
[1] = Single stage extraction of lactic acid from fermentation broth with different solvents (Example 20); conditions: broth pH 3.87
Excerpt: Fermentation broth with a final pH value of 3.87 and a total lactate material concentration of 79 g/liter as determined by high performance liquid chromatography was obtained. A number of different solvents were contacted with the broth to determine the lactic acid recovery in a single stage. […] For the 100% Alamine 336 solvent, two organic phases were isolated and titrated and both values are reported. The partition coefficient is not reported for this system.

[2] = Back extraction of lactic acid from Alamine 336 into second polar liquid phase (Example 4)
Experimental: Two solutions of lactic acid and […] 336 were made by contacting the […] […] The samples were held at the specified temperature in an oil bath for about 45 to 60 minutes with regular mixing. […] A similar procedure was used for contacting […] […] Phases were allowed to settle at specified temperature and then quickly separated by piping out the bottom phase. […] 336 concentrations. In all cases, the […] 336 phase was the least dense phase or the top phase. […] 336 concentrations in the top and bottom phases. […] In some of the solvents, there was a significant amount of […] 336 co-extracted into the polar liquid phase. Dimethyl sulfoxide looks like a favorable solvent for this type of process because of the good selectivity for the lactic acid over the […] 336.

[3] = Chiral purity of lactic acid after heating during triethylamine evaporation (Example 5)
Experimental: The back extraction was scaled up to allow the distillation experiment. […] The triethylamine evaporated initially at 23° C. and 10 mm Hg. […] About 69% of the triethylamine evaporated out. […].
The remaining mixture was heated to 110° C. where it was held for 80 minutes. At this point, 96% of the triethylamine was evaporated.

[4] = Three successive contacts of fermentation broth with fresh extracting solvent (Example 21); conditions: 89 wt % Alamine 336, 9 wt % dodecanol, 2 wt % IsoPar K; for Lactic Acid Aqueous Phase wt % / Lactic Acid Organic Phase wt %: aqueous to organic phase ratio 3.0
Excerpt: Fermentation broth with a final pH of 3.87 and a total lactate material concentration of 79 g/liter as determined by high performance liquid chromatography was obtained.

[5] = solvent 30 wt % TOPO, 70 wt % MIBK
[6] = solvent 82 wt % A336, 10 wt % OctOH, 8 wt % IPK
[7] = solvent 89 wt % A336, 9 wt % DodecOH, 2 wt % IPK

## CC(O)C(=O)O (stereo not drawn) [lactic acid, 2-hydroxypropionic acid]
[1]; [5]
  Lactic Acid Aqueous Phase wt %: 2.24 wt %
  Lactic Acid Organic Phase wt %: 2.36 wt %
  Partition Coefficient: 1.05
[1]; [6]
  Lactic Acid Aqueous Phase wt %: 1.52 wt %
  Lactic Acid Organic Phase wt %: 5.09 wt %
  Partition Coefficient: 3.35
[1]; [7]
  Lactic Acid Aqueous Phase wt %: 4.76 wt %
  Lactic Acid Organic Phase wt %: 1.84 wt %
  Partition Coefficient: 2.6
[1]; solvent 100% A336
  Lactic Acid Aqueous Phase wt %: 2.34 wt %
[2]; solvent Lactide, 140 °C
  Partition Coefficient (lactic acid, Alamine 336 top phase / bottom polar liquid phase): 0.82
[2]; solvent Lactide, 140 °C, Bottom phase, calculated from overall mass balance
  Lactic acid Wt %: 2.98^2 Wt %
[2]; solvent Lactide, 140 °C, Top (Alamine 336) phase
  Lactic acid Wt %: 2.44 Wt %
[2]; solvent NMP, 90 °C
  Partition Coefficient (lactic acid, Alamine 336 top phase / bottom polar liquid phase): 0.29
[2]; solvent NMP, 90 °C, Bottom (polar liquid) phase
  Lactic acid Wt %: 1.13 Wt %
[2]; solvent NMP, 90 °C, Top (Alamine 336) phase
  Lactic acid Wt %: 0.33 Wt %
[2]; solvent NMP, 110 °C
  Partition Coefficient (lactic acid, Alamine 336 top phase / bottom polar liquid phase): 0.22
[2]; solvent NMP, 110 °C, Bottom (polar liquid) phase
  Lactic acid Wt %: 12.2 Wt %
[2]; solvent NMP, 110 °C, Top (Alamine 336) phase
  Lactic acid Wt %: 2.73 Wt %
[3]; 21.5 wt % lactic acid in triethylamine and N-methyl-2-pyrrolidinone, 55° C. 10 mm Hg two hours, then 110° C. 80 minutes
  chiral purity after heating: not significantly changed
[3]; 43 wt % lactic acid in triethylamine, 10 mm Hg, heated to 120° C., held 90 minutes
  chiral purity of the lactic acid after heating: not changed significantly
[4]; Stage 1
  Partition Coefficient: 2.5
  Lactic Acid Aqueous Phase wt %: 1.55 wt %
  Lactic Acid Organic Phase wt %: 3.9 wt %
[4]; Stage 2
  Partition Coefficient: 1.25
  Lactic Acid Aqueous Phase wt %: 1.09 wt %
  Lactic Acid Organic Phase wt %: 1.36 wt %
[4]; Stage 3
  Partition Coefficient: 0.84
  Lactic Acid Aqueous Phase wt %: 0.88 wt %
  Lactic Acid Organic Phase wt %: 0.74 wt %
